Measurements: ChEMBL document CHEMBL1770058, “MMP-13 selective alpha-sulfone hydroxamates: identification of selective P1' amides” (Bioorg Med Chem Lett, 2011)
pIC50: −log10 of the molar value.

How the values were obtained:
Neutrophil collagenase = Neutrophil collagenase (Homo sapiens, UniProt P22894); experiment: Inhibition of human MMP8
Collagenase 3 = Collagenase 3 (Homo sapiens, UniProt P45452); experiment: Inhibition of human MMP13
[1] = target: 72 kDa type IV collagenase (Homo sapiens, UniProt P08253); experiment: Inhibition of human MMP2
[2] = target: Matrix metalloproteinase-9 (Homo sapiens, UniProt P14780); experiment: Inhibition of human MMP9
Interstitial collagenase = target: T1, Interstitial collagenase (Homo sapiens, UniProt P03956); experiment: Inhibition of human MMP1
T1 sequence (P03956 whole entry): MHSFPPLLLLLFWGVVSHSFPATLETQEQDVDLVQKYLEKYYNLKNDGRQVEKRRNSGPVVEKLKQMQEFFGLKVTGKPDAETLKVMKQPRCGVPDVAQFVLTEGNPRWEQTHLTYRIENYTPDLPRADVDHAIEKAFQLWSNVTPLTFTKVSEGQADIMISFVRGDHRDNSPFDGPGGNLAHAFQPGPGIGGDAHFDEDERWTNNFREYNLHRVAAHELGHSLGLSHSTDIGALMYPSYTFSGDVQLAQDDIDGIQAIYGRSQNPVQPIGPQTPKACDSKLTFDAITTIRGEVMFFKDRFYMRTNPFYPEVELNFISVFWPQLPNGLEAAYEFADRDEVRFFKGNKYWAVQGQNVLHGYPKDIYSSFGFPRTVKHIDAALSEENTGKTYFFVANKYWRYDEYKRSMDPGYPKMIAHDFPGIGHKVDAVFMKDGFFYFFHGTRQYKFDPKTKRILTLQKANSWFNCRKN

[3] = target: Matrix metalloproteinase-14 (Homo sapiens, UniProt P50281); experiment: Inhibition of human MMP14
[4] = Bioavailability in rat; format: ADME, organism-based; details: in vivo
[5] = Half life in rat; format: ADME, organism-based; details: in vivo

Sequence of 72 kDa type IV collagenase (P08253 whole entry): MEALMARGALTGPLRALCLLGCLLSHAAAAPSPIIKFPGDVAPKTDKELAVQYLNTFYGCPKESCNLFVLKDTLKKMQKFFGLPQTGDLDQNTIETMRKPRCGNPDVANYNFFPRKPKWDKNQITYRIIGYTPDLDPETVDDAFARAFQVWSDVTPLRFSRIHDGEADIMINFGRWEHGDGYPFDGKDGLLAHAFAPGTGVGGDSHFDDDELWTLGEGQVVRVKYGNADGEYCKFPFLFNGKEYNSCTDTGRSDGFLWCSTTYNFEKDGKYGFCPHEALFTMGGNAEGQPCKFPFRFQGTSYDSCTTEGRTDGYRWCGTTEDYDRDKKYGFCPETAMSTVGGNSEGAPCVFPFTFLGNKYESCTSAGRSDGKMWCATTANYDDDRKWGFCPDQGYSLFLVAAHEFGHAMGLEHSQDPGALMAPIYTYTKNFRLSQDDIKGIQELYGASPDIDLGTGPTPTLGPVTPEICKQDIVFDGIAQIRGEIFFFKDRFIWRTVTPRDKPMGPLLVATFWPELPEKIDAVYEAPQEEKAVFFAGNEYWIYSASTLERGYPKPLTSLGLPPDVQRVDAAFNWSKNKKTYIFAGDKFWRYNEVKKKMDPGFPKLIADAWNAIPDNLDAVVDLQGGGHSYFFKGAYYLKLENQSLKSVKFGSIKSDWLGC
Sequence of Neutrophil collagenase (P22894 whole entry): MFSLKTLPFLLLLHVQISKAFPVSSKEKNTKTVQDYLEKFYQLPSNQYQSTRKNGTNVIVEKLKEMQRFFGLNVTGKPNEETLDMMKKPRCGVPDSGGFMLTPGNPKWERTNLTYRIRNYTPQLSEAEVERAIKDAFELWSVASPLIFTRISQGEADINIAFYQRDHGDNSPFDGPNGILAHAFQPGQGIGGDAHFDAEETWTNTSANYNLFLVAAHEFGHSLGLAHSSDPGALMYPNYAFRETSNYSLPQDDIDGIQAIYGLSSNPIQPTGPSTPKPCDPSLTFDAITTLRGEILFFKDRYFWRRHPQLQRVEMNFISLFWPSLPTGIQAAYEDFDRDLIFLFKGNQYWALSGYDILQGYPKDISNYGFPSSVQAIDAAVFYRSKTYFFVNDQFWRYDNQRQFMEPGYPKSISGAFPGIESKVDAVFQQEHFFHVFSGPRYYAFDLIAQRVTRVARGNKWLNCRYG
Sequence of Matrix metalloproteinase-9 (P14780 whole entry): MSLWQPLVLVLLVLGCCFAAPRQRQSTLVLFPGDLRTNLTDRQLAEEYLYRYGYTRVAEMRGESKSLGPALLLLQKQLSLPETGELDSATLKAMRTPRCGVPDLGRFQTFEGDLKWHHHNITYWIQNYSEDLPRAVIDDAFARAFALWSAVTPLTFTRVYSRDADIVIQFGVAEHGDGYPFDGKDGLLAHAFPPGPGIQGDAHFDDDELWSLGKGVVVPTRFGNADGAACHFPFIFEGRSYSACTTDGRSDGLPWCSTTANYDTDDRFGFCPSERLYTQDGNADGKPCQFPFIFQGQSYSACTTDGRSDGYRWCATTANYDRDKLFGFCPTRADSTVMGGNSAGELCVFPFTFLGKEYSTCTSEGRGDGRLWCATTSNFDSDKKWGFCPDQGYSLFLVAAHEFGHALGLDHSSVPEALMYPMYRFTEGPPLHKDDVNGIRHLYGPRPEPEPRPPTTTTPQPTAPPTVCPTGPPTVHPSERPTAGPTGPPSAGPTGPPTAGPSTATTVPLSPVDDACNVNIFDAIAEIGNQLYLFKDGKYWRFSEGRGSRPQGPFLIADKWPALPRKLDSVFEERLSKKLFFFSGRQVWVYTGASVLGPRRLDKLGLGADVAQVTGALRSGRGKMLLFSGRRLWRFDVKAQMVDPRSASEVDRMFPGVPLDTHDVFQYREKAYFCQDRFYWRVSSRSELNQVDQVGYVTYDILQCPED

SMILES | pIC50 (Neutrophil collagenase) | pIC50 (Collagenase 3) | pIC50 [1] | pIC50 [2] | other results
O=C(NCCCOc1ccc(S(=O)(=O)C2(C(=O)NO)CCOCC2)cc1)C1CCCCC1 | 5.51 | 8.09 | – | – | –
O=C(NCCCOc1ccc(S(=O)(=O)C2(C(=O)NO)CCOCC2)cc1)c1ccc(OC(F)(F)F)cc1 | 6.85 | 9.18 | 6.44 | 5.66 | –
C#CCN1CCC(C(=O)NO)(S(=O)(=O)c2ccc(Sc3ccccc3)cc2)CC1 | – | – | – | – | pIC50 (Interstitial collagenase): < 5.30; pIC50 [3]: 8.10
Cc1ccc(C(=O)NCCCOc2ccc(S(=O)(=O)C3(C(=O)NO)CCOCC3)cc2)c(C)c1 | 6.15 | 8.10 | – | – | –
O=C(CCCOc1ccc(S(=O)(=O)C2(C(=O)NO)CCOCC2)cc1)N1CCCCC1 | 6.10 | 8.92 | 6.77 | 6.17 | –
COc1ccc(OCCCCOc2ccc(S(=O)(=O)C3(C(=O)NO)CCOCC3)cc2)cc1 | 7.17 | – | – | – | –
CN(C)c1ccc(C(=O)C2CCN(c3ccc(S(=O)(=O)C4(C(=O)NO)CCOCC4)cc3)CC2)cc1 | < 5.00 | 8.10 | 5.40 | < 5.00 | –
O=C(CCCOc1ccc(S(=O)(=O)C2(C(=O)NO)CCOCC2)cc1)Nc1ccc(OC(F)(F)F)cc1 | 8.17 | – | 7.96 | – | –
COc1ccc(NC(=O)CCCOc2ccc(S(=O)(=O)C3(C(=O)NO)CCOCC3)cc2)cc1 | 7.51 | 9.52 | 8.60 | 7.64 | –
CCCC(C)(C)C(=O)NCCCOc1ccc(S(=O)(=O)C2(C(=O)NO)CCOCC2)cc1 | 5.92 | 7.52 | – | – | –

Further lines, with some results ahead:

pIC50 (Neutrophil collagenase) | pIC50 (Collagenase 3) | pIC50 [1] | pIC50 [2] | SMILES | other results
6.92 | 9.05 | 7.80 | – | CN(C)c1ccc(C(=O)CCOc2ccc(S(=O)(=O)C3(C(=O)NO)CCOCC3)cc2)cc1 | –
6.00 | 8.70 | 5.96 | – | CN(C)c1ccc(C(=O)NCCCOc2ccc(S(=O)(=O)C3(C(=O)NO)CCOCC3)cc2)cc1 | –
8.59 | – | – | – | CN(C)c1ccc(NC(=O)CCCCOc2ccc(S(=O)(=O)C3(C(=O)NO)CCOCC3)cc2)cc1 | –
6.05 | – | – | – | COc1ccc(C(=O)NCCCOc2ccc(S(=O)(=O)C3(C(=O)NO)CCOCC3)cc2)cc1 | bioavailability [4]: 1.5%; half-life [5]: 34.8 min
6.77 | – | – | – | CN(C)c1ccc(C(=O)CCCOc2ccc(S(=O)(=O)C3(C(=O)NO)CCOCC3)cc2)cc1 | –
6.85 | 9.40 | 7.46 | 5.96 | CN(C)c1ccc(C(=O)CCCCOc2ccc(S(=O)(=O)C3(C(=O)NO)CCOCC3)cc2)cc1 | –
7.00 | – | 8.00 | – | CN(C)c1ccc(NC(=O)CCCOc2ccc(S(=O)(=O)C3(C(=O)NO)CCOCC3)cc2)cc1 | –
7.31 | 8.48 | 6.57 | 6.42 | CN(C(=O)CCCOc1ccc(S(=O)(=O)C2(C(=O)NO)CCOCC2)cc1)c1ccc(OC(F)(F)F)cc1 | –
